From patent US9340573B2, “Azaindolines” (Hoffmann-La Roche Inc., priority 2012, dated 2016)
Counter-ions that a name gives are not always drawn. Like-named read-outs stand apart in the source and are kept apart here.

Assays:
BIR3 domain of XIAP = BIR3 domain of XIAP (Homo sapiens (Human), UniProt P98170); experiment: TR-FRET assay for BIR3: inhibition of binding of the XIAP BIR3 domain to Peptide A (SMAC-derived peptide)
Experimental: (§1) TR-FRET Assay for BIR2 and BIR3
(§2) The ability of a test compound to inhibit the binding of BIR2 and/or BIR3 domains of the XIAP protein to Peptide A (a SMAC-derived peptide described below) evidences that the test compound acts as a SMAC-mimetic resulting in reactivation of a cell's apoptotic pathway.
(§3) The peptides were labeled with the fluorescent tags FITC or TAMRA and Kd values were determined by fluorescence polarization assay. […] The peptide sequence was derivatized with biotin to provide […]-(ε-biotin)-OH 1:2 TFA as the substrate for the TR-FRET assay.
The sequence of the BIR3 domain used for the TR-FRET assay is […]
(§4) Ten nanomolar of 6× Histidine-tagged BIR2 domain, corresponding to amino acids 124-240 of XIAP, or BIR3 domain, corresponding to amino acids 241-356 of XIAP, was mixed with 20 nM of the peptide […]-(ε-biotin)-OH 1:2 TFA, in the presence of 50 mM Tris-Cl, pH 7.5, 100 mM NaCl, 1 mM dithiothreitol (DTT) and 0.1 mg/mL bovine serum albumin (BSA). Following a […] incubation at 37° C., Europium-Streptavidin and Allophycocyanin conjugated anti-Histidine antibody were added to a final concentration of 1.5 nM and 15 nM, respectively. Time-resolved fluorescence resonance energy transfer (TR-FRET) signals were measured 1 hour later at room temperature. Test compound potency was assessed at 10 serially diluted concentrations. Percentage of inhibition at each concentration was determined to generate an IC50 value for each test compound.

BIR2 domain of XIAP = BIR2 domain of XIAP (Homo sapiens (Human), UniProt P98170, C202A/C213G); experiment: TR-FRET assay for BIR2: inhibition of binding of the XIAP BIR2 domain to Peptide A (SMAC-derived peptide)
Experimental: as §1, §2, §3
The XIAP protein sequence was obtained from the SWISS-PROT protein sequence database and the BIR2 and BIR3 domains were derived from that. The sequence of the BIR2 domain used for the TR-FRET assay is […].
as §4

[1] = 6x His-tagged BIR3 domain (aa 241-356 of XIAP), 10 nM, 20 nM Peptide A, TR-FRET, read-out: Ic50 BIR3
[2] = 6x His-tagged BIR2 domain (aa 124-240 of XIAP), 10 nM, 20 nM Peptide A, TR-FRET, read-out: Ic50 BIR2

Sequence of BIR2 domain of XIAP (P98170 other isoform, or with tags, fused parts or gaps, stated change not applied): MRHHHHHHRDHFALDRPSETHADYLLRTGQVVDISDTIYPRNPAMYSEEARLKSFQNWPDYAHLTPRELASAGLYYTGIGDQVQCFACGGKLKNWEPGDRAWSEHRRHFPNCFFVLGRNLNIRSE
Sequence of BIR3 domain of XIAP (P98170 other isoform, or with tags, fused parts or gaps): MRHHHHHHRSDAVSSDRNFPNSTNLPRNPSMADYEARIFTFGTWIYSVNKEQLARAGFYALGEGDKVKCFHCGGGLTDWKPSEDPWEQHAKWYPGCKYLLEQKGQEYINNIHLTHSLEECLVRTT

| SMILES | IC50 (BIR3 domain of XIAP; [1]) | IC50 (BIR2 domain of XIAP; [2]) | other results |
| --- | --- | --- | --- |
| CN[C@@H](C)C(=O)N[C@H](C(=O)N1c2ncccc2C[C@H]1CNC(=O)c1ccccc1)C(C)C [Example 1, N—{(S)-1-[(S)-3-Methyl-2-((S)-2-methylamino-propionylamino)-butyryl]-2,3-dihydro-1H-pyrrolo[2,3-b]pyridin-2-ylmethyl}-benzamide, hydrochloride] | 53 µM | 0.888 µM |  |
| CN[C@@H](C)C(=O)N[C@H](C(=O)N1c2ncccc2CC1CNC(C)=O)C(C)C (stereo partly drawn) [Example 2, (S)-N-{(S)-1-[2-(Acetylamino-methyl)-2,3-dihydro-pyrrolo[2,3-b]pyridine-1-carbonyl]-2-methyl-propyl}-2-methylamino-propionamide hydrochloride] |  |  | IC50 (BIR3 domain of XIAP; read-out: Ic50 BIR3): > 54.8 µM; IC50 (BIR2 domain of XIAP; read-out: Ic50 BIR2): 4.67 µM |
| CNC(=O)NCC1Cc2cccnc2N1C(=O)[C@@H](NC(=O)[C@H](C)NC)C(C)C (stereo partly drawn) [Example 3, (S)-2-Methylamino-N-((S)-2-methyl-1-{2-[(3-methyl-ureido)-methyl]-2,3-dihydro-pyrrolo[2,3-b]pyridine-1-carbonyl}-propyl)-propionamide hydrochloride] | > 54.8 µM | 4.88 µM |  |
| CN[C@@H](C)C(=O)N[C@H](C(=O)N1c2ncccc2C[C@H]1CNC(=O)Cc1ccccc1)C(C)C [Example 4, (S)-2-Methylamino-N-{(S)-2-methyl-1-[(S)-2-(phenylacetylamino-methyl)-2,3-dihydro-pyrrolo[2,3-b]pyridine-1-carbonyl]-propyl}-propionamide hydrochloride] | > 54.8 µM | 1.57 µM |  |
| CN[C@@H](C)C(=O)N[C@H](C(=O)N1c2ncccc2C[C@H]1CNC(=O)OC)C(C)C [Example 5, {(S)-1-[(S)-3-Methyl-2-((S)-2-methylamino-propionylamino)-butyryl]-2,3-dihydro-1H-pyrrolo[2,3-b]pyridin-2-ylmethyl}-carbamic acid methyl ester hydrochloride] | > 54.8 µM | 1.67 µM |  |
| CN[C@@H](C)C(=O)N[C@H](C(=O)N1c2ncccc2C[C@H]1CNC(=O)N(C)C)C(C)C [Example 6, (S)-N-{(S)-1-[(S)-2-(3,3-Dimethyl-ureidomethyl)-2,3-dihydro-pyrrolo[2,3-b]pyridine-1-carbonyl]-2-methyl-propyl}-2-methylamino-propionamide hydrochloride] | > 54.8 µM | 6.17 µM |  |
| CN[C@@H](C)C(=O)N[C@H](C(=O)N1c2ncccc2C[C@H]1CNC(=O)Nc1ccccc1)C(C)C [Example 7, (S)-2-Methylamino-N-((S)-2-methyl-1-{(S)-2-[(3-phenyl-ureido)-methyl]-2,3-dihydro-pyrrolo[2,3-b]pyridine-1-carbonyl}-propyl)-propionamide hydrochloride] | > 54.8 µM | 1.54 µM |  |
| CN[C@@H](C)C(=O)N[C@H](C(=O)N1c2ncccc2C[C@H]1CNC(=O)Oc1ccccc1)C(C)C [Example 12, {(S)-1-[(S)-3-Methyl-2-((S)-2-methylamino-propionylamino)-butyryl]-2,3-dihydro-1H-pyrrolo[2,3-b]pyridin-2-ylmethyl}-carbamic acid phenyl ester hydrochloride] |  |  | IC50 (BIR3 domain of XIAP): > 54.8 µM; IC50 (BIR2 domain of XIAP): 1.62 µM |

More lines, main results first:

| IC50 (BIR3 domain of XIAP; [1]) | IC50 (BIR2 domain of XIAP; [2]) | SMILES | other results |
| --- | --- | --- | --- |
| > 54.8 µM | 2.56 µM | CN[C@@H](C)C(=O)N[C@H](C(=O)N1c2ncccc2C[C@H]1CNC(=O)C(C)c1ccccc1)C(C)C (stereo partly drawn) [Example 8, (S)-2-Methylamino-N-((S)-2-methyl-1-{(S)-2-[(2-phenyl-propionylamino)-methyl]-2,3-dihydro-pyrrolo[2,3-b]pyridine-1-carbonyl}-propyl)-propionamide hydrochloride] |  |
| > 54.8 µM | 1.24 µM | CN[C@@H](C)C(=O)N[C@H](C(=O)N1c2ncccc2C[C@H]1CNS(C)(=O)=O)C(C)C [Example 9, (S)-N-{(S)-1-[(S)-2-(Methanesulfonylamino-methyl)-2,3-dihydro-pyrrolo[2,3-b]pyridine-1-carbonyl]-2-methyl-propyl}-2-methylamino-propionamide hydrochloride] |  |
| > 54.8 µM | 0.82 µM | CN[C@@H](C)C(=O)N[C@H](C(=O)N1c2ncccc2C[C@H]1CNS(=O)(=O)c1ccccc1)C(C)C [Example 10, (S)-N-{(S)-1-[(S)-2-(Benzenesulfonylamino-methyl)-2,3-dihydro-pyrrolo[2,3-b]pyridine-1-carbonyl]-2-methyl-propyl}-2-methylamino-propionamide hydrochloride] |  |
| > 54.8 µM | 1.05 µM | CN[C@@H](C)C(=O)N[C@H](C(=O)N1c2ncccc2C[C@H]1CNC(=O)OCc1ccccc1)C(C)C [Example 11, {(S)-1-[(S)-3-Methyl-2-((S)-2-methylamino-propionylamino)-butyryl]-2,3-dihydro-1H-pyrrolo[2,3-b]pyridin-2-ylmethyl}-carbamic acid benzyl ester] |  |
| 5.34 µM | 0.307 µM | CN[C@@H](C)C(=O)N[C@H](C(=O)N1c2ncccc2C[C@H]1CNc1ccccc1)C(C)C [Example 13, (S)-2-Methylamino-N—[(S)-2-methyl-1-((S)-2-phenylaminomethyl-2,3-dihydro-pyrrolo[2,3-b]pyridine-1-carbonyl)-propyl]-propionamide, hydrochloride] |  |
| 3.95 µM | 0.506 µM | CN[C@@H](C)C(=O)N[C@H](C(=O)N1c2ncccc2C[C@H]1CNc1ccc2ccccc2c1)C(C)C [Example 14, (S)-2-methylamino-N—{(S)-2-methyl-1-[(S)-2-(naphthalen-2-ylaminomethyl)-2,3-dihydro-pyrrolo[2,3-b]pyridine-1-carbonyl]-propyl}-propionamide hydrochloride] |  |
